The text below walks through data of patent US20100093760A1, “METHODS FOR IDENTIFYING COMPOUNDS THAT MODULATE CELL SIGNALING AND METHODS EMPLOYING SUCH COMPOUNDS” (The General Hospital Corporation, priority 2006, published 2010).

Entries after “also recorded” stand apart in the source; their conditions may differ.

Experiment [1] relates to TGF-β1-mediated activation of SMAD2. Nature of the experiment: TGF-β1-mediated SMAD2 phosphorylation in PASMCs. It is filed as cell-based, murine. Here is the method: (§1) Wild-type and BMPR-II-deficient PASMC were isolated as previously described (Yu et al., J. Biol. Chem. 280:24443-24450, 2005), and cultured in RPMI medium (Invitrogen) supplemented with 10% FBS. C2C12 cells (American Type Culture Collection, Manassas, Va.) were cultured in DMEM supplemented with glutamine and 10% FBS. HepG2 cells and Hep3B cells (ATCC) were cultured in Minimal Essential Alpha Medium with L-glutamine (α-MEM, Invitrogen) containing 10% FBS. For studies of SMAD activation in vitro, PASMC were incubated in 0.5% FCS RPMI for 24 hours, followed by preincubation with drug compounds, noggin, or vehicle for 30 minutes, followed the addition of recombinant BMPs 2, 4, 6, or 7, or TGF-β1 or Activin A (R&D Systems, Minneapolis, Minn.) for 30 minutes.
(§2) Cell extracts or tissues were mechanically homogenized in SDS-lysis buffer (62.5 mM Tris-HCl (pH 6.8), 2% SDS, 10% glycerol, 50 mM DTT, 0.01% bromophenol blue); separated by SDS-PAGE; immunoblotted with anti-phospho-SMAD1/5/8, anti-phospho-SMAD2 (Cell Signaling, Beverly, Mass.), or anti-α-tubulin (Upstate/Millipore, Billerica, Mass.) Abs; and visualized using ECL Plus (GE Healthcare, Piscataway, N.J.). Levels of immunoreactive proteins were quantitated by ImageQuant software on a Storm phosphorimager (GE Healthcare).

Experiment [2] concerns BMP-mediated SMAD1/5/8 activation in BMPR-II-deficient PASMCs. Kind of experiment: BMP-induced SMAD1/5/8 activation in BMPR-II-deficient PASMCs. It is filed as cell-based, murine. Here is the method:
as §1, §2

The test system of experiment [3] is caALK6. Kind of experiment: Constitutively-active ALK6 transfection: phospho-SMAD1/5/8 immunoblot and Id1 promoter (BRE-Luc). It is filed as cell-based. Here is the method:
as §2
(§3) Murine PASMCs grown to 50% confluence in 6-well plates were transiently transfected with 0.3 μg Id1 promoter luciferase reporter construct (BRE-Luc, Dr. Peter ten Dijke, Leiden University Medical Center, Netherlands (Korchynskyi et al., J. Biol. Chem. 277:4883-4891, 2002)) in combination with 0.6 μg plasmids expressing constitutively-active forms of BMP type I receptors (caALK2, caALK3, or caALK6, kindly provided by Dr. Kohei Miyazono, University of Tokyo, Japan (Fujii et al., Mol. Biol. Cell 10:3801-3813, 1999)), using Fugene6 (Roche). To assess Activin and […] type I receptor function, PASMCs were transiently transfected with 0.3 μg PAI-1 promoter luciferase reporter construct (CAGA-Luc, Dr. Peter ten Dijke (Dennler et al., Embo J. 17:3091-3100, 1998)) in combination with 0.6 μg plasmids expressing constitutively active forms of type I receptors (caALK4, caALK5, and caALK7, also provided by Dr. Kohei Miyazono (Okadome et al., J. Biol. Chem. 271:21687-21690, 1996; Shimizu et al., Genes Cells 3:125-134, 1998)). For both reporters, 0.2 μg pRL-TK Renilla luciferase (Promega) was used to control for transfection efficiency. PASMCs were incubated with Compound C/Dorsomorphin (4-10 μM) or vehicle starting one hour after transfection, for 24 hours or completion of the experiment. Cell extracts were harvested, and relative promoter activity quantitated by the ratio of firefly to Renilla luciferase activity using the dual luciferase assay kit (Promega). […] Hepcidin promoter activity was measured by luciferase assay as above.
Background: A western blot detects proteins with antibodies after separation by electrophoresis.

For experiment [4], the target named is T1, caALK4 (Homo sapiens, UniProt P36896, T206D).
T1 construct: expressed in transfected cells; host or cells: murine PASMCs, transient transfection
Nature of the experiment: Constitutively-active ALK4 PAI-1 promoter reporter (CAGA-Luc). The settings on record: PASMCs, up to 20 μM. It is filed as cell-based. Here is the method:
as §3, with “PASMCs were incubated with Compound C/Dorsomorphin (4-10 μM) or vehicle starting one hour after transfection, for 24 hours or completion of the experiment.” left out

Experiment [5] has as its target T2, caALK5 (Homo sapiens, UniProt P36897, T204D).
T2 construct: expressed in transfected cells; host or cells: murine PASMCs, transient transfection
Kind of experiment: Constitutively-active ALK5 PAI-1 promoter reporter (CAGA-Luc). The settings on record: PASMCs, up to 20 μM. It is filed as cell-based. Here is the method: as §3, with “PASMCs were incubated with Compound C/Dorsomorphin (4-10 μM) or vehicle starting one hour after transfection, for 24 hours or completion of the experiment.” left out

In experiment [6] the test system is caALK7. Kind of experiment: Constitutively-active ALK7 PAI-1 promoter reporter (CAGA-Luc). The following applies: PASMCs, up to 20 μM. It is filed as cell-based. Here is the method:
as §3, with “PASMCs were incubated with Compound C/Dorsomorphin (4-10 μM) or vehicle starting one hour after transfection, for 24 hours or completion of the experiment.” left out

Experiment [7] has as its system hepcidin promoter. Nature of the experiment: Hepcidin promoter luciferase reporter assay (Hep-Luc) in Hep3B cells. It is filed as cell-based. Here is the method:
as §3, with “PASMCs were incubated with Compound C/Dorsomorphin (4-10 μM) or vehicle starting one hour after transfection, for 24 hours or completion of the experiment.” left out

The subject of experiment [8] is hepcidin (HAMP) and Id1 mRNA. Kind of experiment: Hepcidin and Id1 mRNA qRT-PCR in Hep3B cells. It is filed as cell-based, human. Here is the method:
Quantitative RT-PCR was performed for mRNA encoding Id1 or human hepcidin (HAMP) as previously described (Babitt et al., Nat. Genet. 38:531-539, 2006; Yu et al., J. Biol. Chem. 280:24443-24450, 2005), and normalized to 18S ribosomal RNA (rRNA) or β-actin mRNA levels.
For orientation: In qPCR the cycle at which signal appears reflects the starting amount.

Experiment [9] concerns hepatic SMAD1/5/8 phosphorylation. Kind of experiment: Iron-dextran challenge: hepatic SMAD1/5/8 phosphorylation in mice. It is filed as in vivo, C57BL/6 mice. The following applies: 10 mg/kg co-injected with iron-dextran, intravenous, 1 hour.
The test system of experiment [10] is zebrafish hepcidin mRNA. Kind of experiment: Iron-dextran challenge: hepatic hepcidin mRNA in adult zebrafish. It is filed as in vivo. The settings on record: 23 μg/g co-injected with iron-dextran, 3 hours.
In experiment [11] the test system is murine hepcidin (HAMP1) mRNA. Kind of experiment: Basal hepatic hepcidin mRNA in mice. It is filed as in vivo. The settings on record: C57BL/6 mice, single tail vein injection 10 mg/kg, 6 hours.
Experiment [12] deals with chordin morphant embryos. Kind of experiment: Rescue of ventralization in chordin morphant zebrafish embryos. It is filed as in vivo. The following applies: 20 μM at 2 hpf, 36 hpf. From the text: Since treatment with Compound C/Dorsomorphin mimics BMP antagonism in zebrafish, it was postulated that Compound C/Dorsomorphin might rescue ventralization caused by loss of the endogenous BMP antagonist chordin ([…] et al., Development 123:143-151, 1996; Nasevicius et al., Nat. Genet. 26:216-220, 2000). […] Genet. 26:216-220, 2000; Leung et al., Dev. Biol. 277:235-254, 2005). […] Therefore, Compound C/Dorsomorphin treatment compensates for the loss of an endogenous BMP antagonist in zebrafish embryos, confirming its function as a BMP antagonist.

T2 sequence (P36897 34-503 T204D): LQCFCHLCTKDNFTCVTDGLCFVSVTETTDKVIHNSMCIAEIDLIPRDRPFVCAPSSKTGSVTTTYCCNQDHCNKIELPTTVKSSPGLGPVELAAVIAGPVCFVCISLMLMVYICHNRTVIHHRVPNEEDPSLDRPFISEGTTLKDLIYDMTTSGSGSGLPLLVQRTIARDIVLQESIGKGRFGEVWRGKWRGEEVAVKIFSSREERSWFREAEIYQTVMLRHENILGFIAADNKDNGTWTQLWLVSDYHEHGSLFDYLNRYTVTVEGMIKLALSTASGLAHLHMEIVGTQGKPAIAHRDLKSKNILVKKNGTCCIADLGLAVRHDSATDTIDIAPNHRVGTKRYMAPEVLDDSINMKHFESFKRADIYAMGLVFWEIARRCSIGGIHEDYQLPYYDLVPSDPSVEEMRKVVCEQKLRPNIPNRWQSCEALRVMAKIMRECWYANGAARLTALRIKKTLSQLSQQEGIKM
T1 sequence (P36896 24-505 T206D): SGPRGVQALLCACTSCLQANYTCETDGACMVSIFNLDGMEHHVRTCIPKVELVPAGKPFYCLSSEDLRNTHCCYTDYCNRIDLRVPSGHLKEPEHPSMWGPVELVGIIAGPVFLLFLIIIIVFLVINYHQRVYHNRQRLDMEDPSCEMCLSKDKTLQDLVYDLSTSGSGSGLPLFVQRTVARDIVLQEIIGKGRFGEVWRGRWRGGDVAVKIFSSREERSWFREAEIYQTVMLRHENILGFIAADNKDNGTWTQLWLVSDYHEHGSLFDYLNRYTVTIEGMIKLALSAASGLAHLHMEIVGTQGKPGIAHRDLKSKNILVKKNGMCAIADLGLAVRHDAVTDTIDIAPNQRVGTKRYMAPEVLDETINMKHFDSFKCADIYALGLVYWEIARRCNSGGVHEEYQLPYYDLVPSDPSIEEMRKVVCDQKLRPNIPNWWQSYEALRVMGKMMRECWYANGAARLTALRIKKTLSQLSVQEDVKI

Regarding `c1cc(-c2cnn3cc(-c4ccc(OCCN5CCCCC5)cc4)cnc23)ccn1` [Compound C/Dorsomorphin], the “effect on the TGF-β signaling pathway” value in experiment [1] (FIG. 7) was “does not affect”. In addition, in [1] (PASMCs, TGF-β1 0.5 ng/ml, 0.1-20 μM, 30 minutes), the “effect on TGF-β1-mediated activation of SMAD2” value is on record as “did not inhibit”. The “effect on activation of SMAD1/5/8 by BMPs 2, 4, 6, and 7” value in experiment [2] (BMPR-II-deficient PASMCs, 4 μM, BMPs 10 ng/ml, 30 minutes) was “inhibited”. In addition, the “effect on activity of BMPs 2, 4, 6, 7, and 9” value in experiment [2] (wild type and BMP type II receptor knockout cells) is recorded as “effectively inhibits”. Moreover, the “effect on caALK6-induced increase in phospho-SMAD1/5/8” value in experiment [3] (BMPR-II-deficient PASMCs, 10 μM, immunoblot) is on record as “inhibited”. The “effect on caALK6-mediated Id1 promoter activity (BRE-Luc)” value in experiment [3] (BMPR-II-deficient PASMCs, 0.5-20 μM) is given as “inhibited; also recorded: decreased”. Besides, the “selectivity among constitutively-active BMP type I receptors” value in [3] (BRE-Luc, FIG. 21h) is “apparent selectivity for caALK2 and caALK3 over caALK6”. The “effect on caALK4-mediated PAI-1 promoter activity (CAGA-Luc)” value in [4] is “did not inhibit; also recorded: not decreased”. Besides, the “effect on caALK5-mediated PAI-1 promoter activity (CAGA-Luc)” value in experiment [5] is given as “did not inhibit; also recorded: not decreased”. In experiment [6], the “effect on caALK7-mediated PAI-1 promoter activity (CAGA-Luc)” value was “did not inhibit; also recorded: not decreased”. In addition, the “effect on HJV-induced hepcidin promoter activity (Hep-Luc)” value in [7] (Hep3B cells transfected with HJV) is on record as “effectively abrogated; also recorded: blocked”. In experiment [7] (Hep3B cells, 10 μM, BMP2 25 ng/ml), the “effect on BMP2-induced hepcidin promoter activity (Hep-Luc)” value is reported as “effectively abrogated”. Besides, in experiment [8] (4 μM, IL-6 100 ng/ml, 6 hours), the “Id1 mRNA, alone or in combination with IL-6” value is reported as “blocked; also recorded: below basal levels” and the “hepcidin mRNA, alone or in combination with IL-6” value is listed as “blocked; also recorded: below basal levels”. Also, the “lowering of baseline hepcidin expression” value in [8] (DM 4 μM alone) was 27%. The “effect on BMP4-induced hepcidin mRNA expression” value in [8] (DM 4 μM pretreatment, BMP4 20 ng/ml) is listed as “completely abrogated”. Also, in [9], the “effect on iron-mediated increase in hepatic SMAD1/5/8 phosphorylation” value was “abolished; also recorded: did not exhibit an increase”. Also, the “effect on iron-dextran-induced hepatic hepcidin mRNA” value in experiment [10] is “inhibited the increase; also recorded: not significantly different from dextran-treated fish”. In addition, the “liver hepcidin mRNA relative to controls” value in experiment [11] is “one-third”. Moreover, the “ventralization of chordin morphant embryos” value in experiment [12] was “prevented ventralization and ICM expansion; also recorded: little or no ventralization”.
